Measured values from patent US20190022088A1 (RedHill Biopharma Ltd., priority 2017, published 2019).

Experiments:
Human Trypsin-3 = target: T1, Human Trypsin-3 (Homo sapiens, UniProt P35030); experiment: Ki of WX-UK1, chromogenic substrate cleavage; assay type: biochemical; conditions: 37° C., 0.5% BSA, pH=7.4, read-out: Ki (μM) Mean ± SD (n)
T1 sequence (P35030 81-304 limits assumed): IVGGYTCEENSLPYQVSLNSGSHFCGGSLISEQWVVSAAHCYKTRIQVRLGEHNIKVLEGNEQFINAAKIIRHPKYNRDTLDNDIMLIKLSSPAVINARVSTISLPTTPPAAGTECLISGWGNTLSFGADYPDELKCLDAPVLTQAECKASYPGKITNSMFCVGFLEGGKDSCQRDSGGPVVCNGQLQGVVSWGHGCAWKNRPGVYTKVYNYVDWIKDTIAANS

trypsin-2 [1] = target: T2, trypsin-2 (Homo sapiens, UniProt P07478); experiment: Ki of WX-UK1, chromogenic substrate cleavage; assay type: biochemical; conditions: 37° C., 0.5% BSA, pH=7.4, read-out: Ki (μM) Mean ± SD (n)
Human Trypsin-1 = Human Trypsin-1 (Homo sapiens, UniProt P07477); experiment: Ki of WX-UK1, chromogenic substrate cleavage; assay type: biochemical; conditions: 37° C., 0.5% BSA, pH=7.4, read-out: Ki (μM) Mean ± SD (n)
Human Tryptase- = experiment: Ki of WX-UK1, chromogenic substrate cleavage; assay type: biochemical; conditions: Human Tryptase- (isoform character is an image); 37° C., 0.5% BSA, pH=7.4; read-out: Ki (μM) Mean ± SD (n)
Protocol: (§1) Samples of the selected proteases were prepared and characterized biochemically with respect to inhibitory constant (Ki) of inhibition by WX-UK1-1 and affinity (Kd) of the interaction.
Substrate concentrations were kept high in order to stay around 10% turnover per run.

trypsin-2 [2] = target: T2, trypsin-2; experiment: Drug-binding kinetic studies
Protocol: as §1

Solubility = assay type: physicochemical
[3] = target: urokinase type plasminogen activator (uPA) (Homo sapiens, UniProt P00749); conditions: previously shown; cited from earlier work
plasmin = plasmin (Homo sapiens, UniProt P00747); conditions: previously shown; cited from earlier work
implanted tumors = conditions: parenterally administered; cited from earlier work

T2 sequence (P07478 24-247): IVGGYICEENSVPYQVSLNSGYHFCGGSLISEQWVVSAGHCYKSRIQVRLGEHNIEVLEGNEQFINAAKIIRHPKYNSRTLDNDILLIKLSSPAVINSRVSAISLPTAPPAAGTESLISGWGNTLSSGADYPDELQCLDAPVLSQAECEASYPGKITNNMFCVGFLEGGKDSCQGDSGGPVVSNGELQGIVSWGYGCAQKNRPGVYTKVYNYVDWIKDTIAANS
Chain of plasmin (P00747 581-810 limits assumed, species assumed): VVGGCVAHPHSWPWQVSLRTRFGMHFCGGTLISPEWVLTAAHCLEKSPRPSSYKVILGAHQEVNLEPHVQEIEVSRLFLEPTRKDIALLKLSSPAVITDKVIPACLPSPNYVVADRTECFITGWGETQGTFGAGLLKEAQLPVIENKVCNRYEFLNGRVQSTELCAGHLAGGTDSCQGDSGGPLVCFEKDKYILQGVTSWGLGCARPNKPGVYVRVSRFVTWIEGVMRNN
Chain of plasmin (P00747 97-580 partner limits assumed, species assumed): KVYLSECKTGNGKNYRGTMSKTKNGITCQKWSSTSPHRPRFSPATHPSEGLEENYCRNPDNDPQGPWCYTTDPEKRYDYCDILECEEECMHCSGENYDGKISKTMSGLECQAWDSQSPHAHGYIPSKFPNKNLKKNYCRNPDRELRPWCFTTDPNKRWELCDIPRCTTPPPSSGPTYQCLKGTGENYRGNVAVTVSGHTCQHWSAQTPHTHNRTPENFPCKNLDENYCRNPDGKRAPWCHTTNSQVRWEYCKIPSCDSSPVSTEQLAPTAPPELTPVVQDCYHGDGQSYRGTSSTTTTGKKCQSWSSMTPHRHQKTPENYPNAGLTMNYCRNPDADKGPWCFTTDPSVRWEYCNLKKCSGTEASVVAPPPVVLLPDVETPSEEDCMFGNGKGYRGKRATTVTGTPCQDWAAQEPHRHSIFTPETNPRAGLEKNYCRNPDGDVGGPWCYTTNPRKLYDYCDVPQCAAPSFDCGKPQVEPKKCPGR

For `CCOC(=O)N1CCN(C(=O)C(Cc2cccc(C(=N)N)c2)NS(=O)(=O)c2c(C(C)C)cc(C(C)C)cc2C(C)C)CC1` (stereo not drawn) [WX-UK1, N-α-(2,4,6-triisopropylphenylsulfonyl)-3-amidino-(L)-phenylalanine 4-ethoxycarbonylpiperazide], the Ki (Human Trypsin-3) was roughly 0.019 µM, the Ki (trypsin-2 [1]) was roughly 0.075 µM and the Ki (Human Trypsin-1) was roughly 0.19 µM. The Ki (Human Tryptase-) was 11 ± 2 µM, the “rate of association with trypsin-2 compared with uPA” value (trypsin-2 [2]) was “faster” and the “rate of dissociation from trypsin-2 compared with uPA” value (trypsin-2 [2]) was “slower”. The solubility in water (Solubility) was “poor solubility”, the Ki [3] was 650 to 900 nM and the Ki (plasmin) was 1460 to 2400 nM. For the same molecule, the “growth rate of implanted tumors” value (implanted tumors) was “reduce the growth rate of implanted tumors” and the “invasion into nearby lymph nodes and spreading to distant target organs of metastasis” value (implanted tumors) was “inhibit their invasion into nearby lymph nodes and their spreading to distant target organs of metastasis”.
